Read-outs that look alike come from different tables or passages of the source.
Key:
[1] = system: gamma secretase in CHO cells expressing APPSwe, NotchΔE and a Notch responsive luciferase reporter gene (SNC-204B8); assay: SNC dual cell assay for simultaneous assay of A-beta reduction and Notch signaling (Example D); conditions: ratio of Notch IC50/Aβ EC50 determined as described in Example D (SNC dual cell assay)
Description: In order to facilitate testing the potency of gamma-secretase inhibitors on two substrates (APP and Notch) simultaneously, a dual-assay using a CHO cell line stably expressing APPSwe, a Notch substrate lacking the ecto-domain, and a Notch responsive Luciferase reporter gene was developed. CHOSwe cells stably over-express the Swedish FAD isoform of APP, and secrete large amounts of Aβ peptide into the conditioned media from endogenous β- and γ-secretase enzyme activity. A Notch intracellular domain (NICD) responsive reporter gene, and the constitutive gamma-secretase Notch substrate, NotchΔE, were stably introduced into CHOSwe cells in a two step process. CHOSwe cells were first stably transfected to express a NICD responsive luciferase reporter gene construct (pGL2-CBF-Luc). […] Stable cell lines expressing rat NotchΔE were then identified in the second step by including a gamma-secretase inhibitor in the selection process (to suppress Notch/NICD toxicity) following transfection of the rat Notch-ΔE construct. […] This vector drives expression of a truncated rat Notch construct corresponding to the c-terminal product following ecto-domain shedding of full length rat Notch protein. The c-terminal product is a constitutive substrate for gamma-secretase cleavage, resulting in release of the cytoplasmic Notch intracellular domain (NICD) product, which translocates to the nucleus and relieves CBF repressed genes. Subsequently, pIRES-ZEDN transfected cells were re-plated at low density in the presence of test compound, and selected with three antibiotics (G418 (0.5 mg/ml)/Hygro (1 mg/ml)/Puro (2.5 mg/ml)). The antibiotic-resistant colonies (named SNC clones for the dual-assay components: APPSwe/NotchΔE/CBF) were isolated and expanded for characterization of Aβ secretion, and NICD responsive reporter gene activity (i.e. luciferase signal in the presence versus absence of test compound). […] A typical dual-assay experiment was performed as follows: Day 1, the SNC cells were plated in 96-well assay plates in inhibitor-free media. Day 2, the cells were fed with fresh media (inhibitor free) and treated with test compounds over a concentration range 0 nM to 40,000 nM (in 10× incremental dilutions) one hour after the media change. The cells were treated with compounds overnight at 37° C. […] For the Notch signaling assay, the cells were lysed and luciferase activity from the lysate was measured using the Promega kit (see below). Day 4, Aβ-ELISA part II was conducted using 3D6-biotin/AP-streptavidin antibodies.

[2] = biological target: T1, gamma-secretase (partially purified extract of IMR-32 cell membranes; substrate MBP-C125 Swe fusion protein, cleavage at the Aβ40 site) (Homo sapiens, UniProt P49768); assay: Gamma-secretase APP enzyme assay (Example A); assay type: biochemical; conditions: assay described in Example A, read-out: γAPP IC50
T1 construct: a partially purified extract of IMR-32 cell membranes as the gamma-secretase enzyme preparation; endogenous in cells; host or cells: IMR-32 cell membranes, partially purified extract
In short: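 IMR-32 membrane extract, solubilised in BigCHAPS with brain lipid (0.53 mg/ml) in Hepes/NaCl, preincubated 30 min at 37° C with inhibitor; MBP-C125 Swe substrate then added, 2 h at 37° C, SDS-quenched. Aβ40 neo-epitope product measured by sandwich ELISA against six-point standard curve.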

[3] = numeric bounds given instead of class symbols

Compound	IC50 ([2]; class symbols)	other results
O=S(=O)(c1ccc(C(F)(F)F)cc1)N1C2Cc3[nH]ncc3C1CC(c1csnn1)C2 (racemic) [(±)-6-(1,2,3-thiadiazol-4-yl)-10-{[4-(trifluoromethyl)phenyl]sulfonyl}-4,5,6,7,8,9-hexahydro-1H-4,8-epiminocycloocta[c]pyrazole]		Selectivity Ratio (Notch IC50/Aβ ED50) [1]: (^++)
O=S(=O)(c1ccc(C(F)(F)F)nc1)N1C2Cc3[nH]ncc3C1CC(c1ccc3c(c1)OCO3)C2 (racemic) [(±)-6-(1,3-benzodioxol-5-yl)-10-{[6-(trifluoromethyl)pyridin-3-yl]sulfonyl}-4,5,6,7,8,9-hexahydro-1H-4,8-epiminocycloocta[c]pyrazole]		Selectivity Ratio (Notch IC50/Aβ ED50) [1]: (+) ((+) means a ratio from about 50 to about 99)
O=S(=O)(c1ccc(C(F)(F)F)cc1)N1C2Cc3[nH]ncc3C1CC(c1cccc(Br)c1)C2 (racemic) [(±)-6-(3-bromophenyl)-10-{[4-(trifluoromethyl)phenyl]sulfonyl}-4,5,6,7,8,9-hexahydro-1H-4,8-epiminocycloocta[c]pyrazole]		Selectivity Ratio (Notch IC50/Aβ ED50) [1]: (+) ((+) means a ratio from about 50 to about 99)
O=S(=O)(c1ccc(C(F)(F)F)cc1)N1C2Cc3[nH]ncc3C1CC(c1cccc(-n3cccn3)c1)C2 (racemic) [(±)-6-[3-(1H-pyrazol-1-yl)phenyl]-10-{[4-(trifluoromethyl)phenyl]sulfonyl}-4,5,6,7,8,9-hexahydro-1H-4,8-epiminocycloocta[c]pyrazole]		Selectivity Ratio (Notch IC50/Aβ ED50) [1]: (+) ((+) means a ratio from about 50 to about 99)
O=S(=O)(c1ccc(C(F)(F)F)cc1)N1C2Cc3[nH]ncc3C1c1cccc(-c3cccc(C(F)(F)F)c3)c1C2 (racemic) [(±)-7-[3-(trifluoromethyl)phenyl]-12-{[4-(trifluoromethyl)phenyl]sulfonyl}-4,5,6,11-tetrahydro-3H-5,11-epiminobenzo[4,5]cycloocta[1,2-c]pyrazole]		Selectivity Ratio (Notch IC50/Aβ ED50) [1]: (++) ((++) means a ratio from about 100 to about 149)
O=S(=O)(c1ccc(C(F)(F)F)nc1)N1C2Cc3[nH]ncc3C1c1ncc(F)cc12 (racemic) [(±)-7-fluoro-11-{[6-(trifluoromethyl)pyridin-3-yl]sulfonyl}-1,4,9,10-tetrahydro-4,9-epiminopyrazolo[3′,4′: 5,6]cyclohepta[1,2-b]pyridine]		Selectivity Ratio (Notch IC50/Aβ ED50) [1]: (+) ((+) means a ratio from about 50 to about 99)
Cc1noc(C2CC3Cc4[nH]ncc4C(C2)N3S(=O)(=O)c2ccc(Cl)cc2)n1 (racemic) [(±)-10-[(4-chlorophenyl)sulfonyl]-6-(3-methyl-1,2,4-oxadiazol-5-yl)-4,5,6,7,8,9-hexahydro-1H-4,8-epiminocycloocta[c]pyrazole]		Selectivity Ratio (Notch IC50/Aβ ED50) [1]: (++++) ((++++) means a ratio of Notch IC50/Aβ EC50 (determined as described in Example D) of >200)
Cc1cc(C2CC3Cc4[nH]ncc4C(C2)N3S(=O)(=O)c2ccc(Cl)cc2)on1 (racemic) [(±)-10-[(4-chlorophenyl)sulfonyl]-6-(3-methylisoxazol-5-yl)-4,5,6,7,8,9-hexahydro-1H-4,8-epiminocycloocta[c]pyrazole]		Selectivity Ratio (Notch IC50/Aβ ED50) [1]: (++++) ((++++) means a ratio of Notch IC50/Aβ EC50 (determined as described in Example D) of >200)
O=S(=O)(c1ccc(C(F)(F)F)nc1)N1C2Cc3[nH]ncc3C1c1ccccc12 (centres unmarked) [compound 196]		IC50 [2, 3]: > 30 nM
O=S(=O)(c1ccc(C(F)(F)F)nc1)N1C2Cc3[nH]ncc3C1c1ccccc12 (centres unmarked) [compound 197]	< 100 nM	
O=C1c2n[nH]cc2C2c3ccccc3C1N2S(=O)(=O)c1ccc(C(F)(F)F)nc1 (centres unmarked) [compound 200]	< 100 nM	
Cc1noc(-c2ccc3c(c2)C2c4cn[nH]c4CC3N2S(=O)(=O)c2ccc(C(F)(F)F)nc2)n1 (centres unmarked) [compound 201]	> 1000 nM	
Cc1noc(-c2ccc3c(c2)C2c4cn[nH]c4CC3N2S(=O)(=O)c2ccc(C(F)(F)F)nc2)n1 (centres unmarked) [compound 202]	> 1000 nM	
COC(=O)c1ccc2c(c1)C1c3cn[nH]c3CC2N1S(=O)(=O)c1ccc(C(F)(F)F)nc1 (centres unmarked) [compound 203]	> 1000 nM	
COC(=O)c1ccc2c(c1)C1c3cn[nH]c3CC2N1S(=O)(=O)c1ccc(C(F)(F)F)nc1 (centres unmarked) [compound 205]	100 to 499 nM	
O=S(=O)(c1ccc(C(F)(F)F)nc1)N1C2c3ccccc3C1[C@@H](F)c1n[nH]cc12 (some centres unmarked) [compound 206]	< 100 nM	
O=S(=O)(c1ccc(C(F)(F)F)nc1)N1C2c3c[nH]nc3[C@H](F)C1c1cccc(F)c12 (some centres unmarked) [compound 207]	< 100 nM	
O=S(=O)(c1ccc(C(F)(F)F)nc1)N1C2Cc3cccc(Br)c3[C@@H]1Cc1n[nH]cc12 [compound 212]	< 100 nM	
O=S(=O)(c1ccc(C(F)(F)F)nc1)N1C2Cc3cccc(Br)c3C1Cc1[nH]ncc12 (centres unmarked) [compound 213]	100 to 499 nM	
O=S(=O)(c1ccc(C(F)(F)F)nc1)N1C2c3cn[nH]c3C(F)(F)C1c1c(F)cccc12 (centres unmarked) [compound 215]	< 100 nM	
O=S(=O)(c1ccc(C(F)(F)F)nc1)N1C2c3c[nH]nc3[C@@H](O)C1c1c(F)cccc12 (some centres unmarked) [compound 216]	100 to 499 nM	
O=S(=O)(c1ccc(C(F)(F)F)nc1)N1C2Cc3cccc(Br)c3C1c1cn[nH]c1C2 (centres unmarked) [compound 218]	< 100 nM	
O=S(=O)(c1ccc(C(F)(F)F)nc1)N1C2Cc3[nH]ncc3C1c1cc(Cl)ccc12 (centres unmarked) [compound 221]	100 to 499 nM	
O=S(=O)(c1ccc(C(F)(F)F)nc1)N1C2Cc3[nH]ncc3C1c1cc(Cl)ccc12 (centres unmarked) [compound 222]	< 100 nM	
COC(=O)c1cccc2c1C1Cc3[nH]ncc3C2N1S(=O)(=O)c1ccc(C(F)(F)F)nc1 (centres unmarked) [compound 226]	< 100 nM	
COC(=O)c1cccc2c1C1Cc3[nH]ncc3C2N1S(=O)(=O)c1ccc(C(F)(F)F)nc1 (centres unmarked) [compound 227]	100 to 499 nM	
O=S(=O)(c1ccc(C(F)(F)F)nc1)N1C2Cc3[nH]ncc3C1c1cccc(Cl)c12 (centres unmarked) [compound 228]	< 100 nM	

Compound	IC50 ([2]; class symbols)	other results
O=S(=O)(c1ccc(C(F)(F)F)nc1)N1C2Cc3[nH]ncc3C1c1cccc(Cl)c12 (centres unmarked) [compound 229]	100 to 499 nM	
Cc1noc(-c2cccc3c2C2Cc4[nH]ncc4C3N2S(=O)(=O)c2ccc(C(F)(F)F)nc2)n1 (centres unmarked) [compound 234]	< 100 nM	
Cc1noc(-c2cccc3c2C2Cc4[nH]ncc4C3N2S(=O)(=O)c2ccc(C(F)(F)F)nc2)n1 (centres unmarked) [compound 235]	100 to 499 nM	
O=C1c2[nH]ncc2C2c3c(F)cccc3C1N2S(=O)(=O)c1ccc(Cl)cc1 (centres unmarked) [compound 236]	< 100 nM	
O=S(=O)(c1ccc(C(F)(F)F)nc1)N1C2c3c[nH]nc3[C@H](O)C1c1cccc(F)c12 (some centres unmarked) [compound 237]	> 1000 nM	
O=S(=O)(c1ccc(C(F)(F)F)nc1)N1C2c3cn[nH]c3[C@@H](O)C1c1cccc(F)c12 (some centres unmarked) [compound 238]	< 100 nM	
O=S(=O)(c1ccc(C(F)(F)F)nc1)N1C2c3c[nH]nc3[C@H](O)C1c1c(F)cccc12 (some centres unmarked) [compound 239]	> 1000 nM	
O=S(=O)(c1ccc(C(F)(F)F)nc1)N1C2c3c[nH]nc3[C@@H](O)C1c1c(F)cccc12 (some centres unmarked) [compound 240]	100 to 499 nM	
O=S(=O)(c1ccc(C(F)(F)F)nc1)N1C2Cc3[nH]ncc3C1c1cc(-c3ccc(F)cc3)ccc12 (centres unmarked) [compound 241]	< 100 nM	
O=C1c2[nH]ncc2C2c3c(F)cccc3C1N2S(=O)(=O)c1ccc(Cl)cc1 (centres unmarked) [compound 242]	< 100 nM	
O=C1c2[nH]ncc2C2c3c(F)cccc3C1N2S(=O)(=O)c1ccc(Cl)cc1 (centres unmarked) [compound 243]	100 to 499 nM	
O=S(=O)(c1ccc(C(F)(F)F)nc1)N1C2Cc3[nH]ncc3C1c1cc(Br)ccc12 (centres unmarked) [compound 250]	< 100 nM	
O=S(=O)(c1ccc(C(F)(F)F)nc1)N1C2Cc3[nH]ncc3C1c1cc(Br)ccc12 (centres unmarked) [compound 251]	100 to 499 nM	
O=S(=O)(c1ccc(C(F)(F)F)nc1)N1C2Cc3n[nH]cc3C1c1cccc(CO)c12 (centres unmarked) [compound 252]	< 100 nM	
O=S(=O)(c1ccc(C(F)(F)F)nc1)N1C2Cc3n[nH]cc3C1c1nc(-c3ccc(F)cc3)ccc12 (centres unmarked) [compound 254]	100 to 499 nM	
O=S(=O)(c1ccc(C(F)(F)F)nc1)N1C2Cc3[nH]ncc3C1c1nc(C3CC3)ccc12 (centres unmarked) [compound 255]	100 to 499 nM	
O=S(=O)(c1ccc(C(F)(F)F)nc1)N1C2Cc3[nH]ncc3C1c1nc(C3CC3)ccc12 (centres unmarked) [compound 256]	> 1000 nM	
CC#Cc1ccc2c(c1)[C@@H]1c3cn[nH]c3C[C@@H]2N1S(=O)(=O)c1ccc(C(F)(F)F)nc1 [compound 261]	100 to 499 nM	
O=S(=O)(c1ccc(C(F)(F)F)nc1)N1C2/C(=N/O)c3[nH]ncc3C1c1cccc(Cl)c12 (centres unmarked) [compound 265]	< 100 nM	
O=S(=O)(c1ccc(C(F)(F)F)nc1)N1[C@H]2c3cn[nH]c3[C@H](F)[C@@H]1c1cccc(F)c12 [compound 267]	< 100 nM	
O=S(=O)(c1ccc(C(F)(F)F)nc1)N1[C@@H]2c3cn[nH]c3[C@H](F)[C@H]1c1cccc(F)c12 [compound 268]	> 1000 nM	
CO/N=C1\c2[nH]ncc2C2c3cccc(Cl)c3C1N2S(=O)(=O)c1ccc(C(F)(F)F)nc1 (centres unmarked) [compound 269]	< 100 nM	
C=C1c2[nH]ncc2C2c3cccc(Cl)c3C1N2S(=O)(=O)c1ccc(C(F)(F)F)nc1 (centres unmarked) [compound 272]	< 100 nM	
CC12C(=O)c3[nH]ncc3C(c3ccccc31)N2S(=O)(=O)c1ccc(C(F)(F)F)nc1 (centres unmarked) [compound 275]	< 100 nM	
CC12C(=O)c3[nH]ncc3C(c3ccccc31)N2S(=O)(=O)c1ccc(C(F)(F)F)nc1 (centres unmarked) [compound 276]		IC50 [2, 3]: > 30 nM
CC12C(=O)c3[nH]ncc3C(c3ccccc31)N2S(=O)(=O)c1ccc(C(F)(F)F)cc1 (centres unmarked) [compound 277]	< 100 nM	
